The conditions of series [1]: cited from earlier work.
For series [2] the following is noted: cited from earlier work. This is another data set of the same source.
Series [3] relates to brain tumor patients. The note with it: cited from earlier work.
Series [4] concerns brain tumor patients. Kind of series: DS-DGE MRI at 3 T in brain tumor patients with D-Glc infusion. On the set-up: species or system human. The following applies: in vivo. The source says:
Four brain tumor patients were studied (one with an IDH-wildtype glioblastoma, two with a grade 2 IDH-mutated astrocytoma, and one with ALK-mutated non-small-cell lung cancer metastases). The project was approved by the local Institutional Review Board, and each participant provided written informed consent. Participants were asked to fast six hours before the study, but clear liquids were permitted. Before the start of the MRI examination, blood was drawn to verify normal baseline glucose levels (3.9-7.0 mM).
Patients were examined on a 3 T Philips Elition RX system (Philips Healthcare, Best, the Netherlands). Pre- and post-contrast enhanced T1-MPRAGE, FLAIR, DS-DGE, DCE and DSC images were acquired T1-MPRAGE: TR/TE/FA=7.5 ms/3.5 ms/8°, FOV=212×212 mm^2, resolution=1.1×1.1×2.2 mm^3, inversion time=755 ms, acquisition time=1 min 46 s, and FLAIR: TR/TE=11,000/120 ms, FOV=212×212 mm^2 resolution=1.1×1.1×2.2 mm^3, inversion time=2800 ms, acquisition time=3 min 51 s.
DS-DGE images were acquired using ten consecutive 50-ms sinc-gaussian pulses (B1peak=0.5 μTtsat=0.5 s), followed by a whole-brain simultaneous multi-slice EPI readout (multi-band factor 3). A total of 27 slices with FOV of 208×208 mm^2 and a resolution of 2.2×2.2×4.4 mm^3 were acquired using TR/TE/FA=1200 ms/17 ms/52°. 32 frequencies were acquired in 38.2 s at offsets: ±[10 (2×), 5.0, 2.5, 2.0, 1.5, 1.2, 1.0, 0.80, 0.70, 0.60, 0.50, 0.40, 0.30, 0.20, 0.10] ppm. In total 40 dynamics (Z-spectra) were acquired. Approximately five minutes into the scan (after the 8th dynamic), D-Glc was administrated intravenously with a power-injector at a rate of 6.25 g/min using hospital-grade D50 glucose (D50, Hospira Inc., Lake Forest, IL; 35 g of D-Glc in 70 mL of water sterile solution prepared by the Johns Hopkins pharmacy), followed by a saline rinse. Total experiment duration was 25.5 min.
The dynamic DS spectrum signal intensities from each voxel were normalized using the average of the second of two acquisitions at ±10 ppm and then fitted to a Lorentzian line shape using the DL-based single Lorentzian fitting neural network (sLoFNet)^43. The linewidths, defined as FWHM in the DL fitting, were used to generate LW maps (in Hz) for each dynamic. The dynamic linewidth maps were rigid motion corrected using Elastix^48 and visually inspected for remaining motion artefacts.
A baseline was calculated by averaging the linewidth maps obtained before infusion. To remove outliers, baseline LWs greater or less than the average±2SD were discarded. LWbase was then calculated by averaging the remaining baseline LWs. Dynamic ΔLW images were obtained by subtracting LWbase from each linewidth dynamic image, LW(t), followed by normalization with LWbase:
Normalized area-under-the-curve (AUC) was calculated by subtracting LWbase from the average of dynamic LWs obtained from infusion start and through the dynamic scan (LWaverage), followed by normalization with LWbase:
Normalized AUC over the infusion block alone was also calculated. Both fitting and calculations were performed in Python.

Read-outs that look alike come from different tables or passages of the source.

For `O=C[C@H](O)[C@@H](O)[C@H](O)[C@H](O)CO` [D-glucose], the “hydroxyl proton exchange rate” value in series [1] (hydroxyl pool at 0.66 ppm, pH 6.8 (TUMOR EES)) is 1500 Hz; in series [1] (hydroxyl pool at 0.66 ppm, pH 7.2, 37° C.), 2900 Hz; in series [1] (hydroxyl pool at 1.28 ppm, pH 6.8 (TUMOR EES)), 3100 Hz; in series [1] (hydroxyl pool at 1.28 ppm, pH 7.2, 37° C.), 6500 Hz; in series [1] (hydroxyl pool at 2.08 ppm, pH 6.8 (TUMOR EES)), 2500 Hz; in series [1] (hydroxyl pool at 2.08 ppm, pH 7.2, 37° C.) it was 5200 Hz. Also, the “hydroxyl proton exchange rate” value was 6000 Hz in series [1] (hydroxyl pool at 2.88 ppm, pH 6.8 (TUMOR EES)) and 14300 Hz in series [1] (hydroxyl pool at 2.88 ppm, pH 7.2, 37° C.). Further, the “venous plasma blood glucose average increase” value in series [2] (D-Glc dose of 25 g, N=11, previous DGE MRI study) is 9.8 mM. Further, the “increase in plasma blood glucose” value in series [2] (maximum D-Glc dose of 25 g, previous DGE studies) is given as “up to 15 mM”. Besides, the “DGE MRI effect size” value is listed as at most 0.25% with brain tumor patients [3] (contrast enhanced tumor area, LGG and HGG patients, maximum dose 20 g of D-Glc in 100 mL, Bender et al.); “approximately 1.5%” in the series with brain tumor patients [3] (glioblastoma, 3 T, Xu et al.); 0.5-1.5% in the series on brain tumor patients [3] (low and high grade glioma enhancement areas, dose of 25 g, Mo et al.). Also, the “DGE MRI signal increase after D-Glc infusion” value with brain tumor patients [3] (metastases, Wu et al.) is reported as at most 10%. Besides, the “ΔLW (DS linewidth change)” value in the series on brain tumor patients [4] ((ventricular) CSF, 35 g D-glucose infusion, 3 T) is recorded as about 40%; in the series with brain tumor patients [4] (GM/WM, 35 g D-glucose infusion, 3 T) it was “approximately 1%”; with brain tumor patients [4] (contrast enhanced peri-cavity infiltrative tumor region, recurrent IDH-wildtype glioblastoma patient, during infusion), “approximately 15%”; in the series with brain tumor patients [4] (different tumor types, 35 g D-glucose infusion, 3 T) it was 5-20%. The LW change entry with brain tumor patients [4] (white matter, lung cancer brain metastases patient) is recorded as “negligible”.

The values are drawn from US20250339051A1, “DYNAMIC CHEMICAL-EXCHANGE-SATURATION-TRANSFER (CEST) AGENT ENHANCED MRI USING DIRECT WATER SATURATION” (The Johns Hopkins University, priority 2024, published 2025).
